The values that follow come from patent US20030166201A1, “Selection systems for genetically modified cells” (priority 2001, published 2003).

Read-outs that look alike come from different tables or passages of the source.

For data set [1], the target named is T1, DHODH (Homo sapiens, UniProt Q02127). The note with it: cited from earlier work; for Km: substrate/cosubstrate.
Target sequence in this assay (Q02127 whole entry): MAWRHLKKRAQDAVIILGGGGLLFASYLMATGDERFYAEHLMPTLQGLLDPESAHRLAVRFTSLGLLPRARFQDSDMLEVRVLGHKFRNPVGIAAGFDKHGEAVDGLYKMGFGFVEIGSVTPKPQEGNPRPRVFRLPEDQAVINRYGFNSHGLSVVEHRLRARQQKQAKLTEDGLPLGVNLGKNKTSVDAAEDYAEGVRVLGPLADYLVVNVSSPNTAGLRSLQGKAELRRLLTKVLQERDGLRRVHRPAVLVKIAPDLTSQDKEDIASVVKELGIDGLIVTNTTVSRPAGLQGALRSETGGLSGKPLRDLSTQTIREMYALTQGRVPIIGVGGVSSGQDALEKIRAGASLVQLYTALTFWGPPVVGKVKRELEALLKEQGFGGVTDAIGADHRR
A further data set deals with type I IMPDH (Homo sapiens, UniProt P20839). The note with it: cited from earlier work; for Ki: product inhibition.
Another data set deals with type II IMPDH (Homo sapiens, UniProt P12268). Conditions: cited from earlier work; for Ki: product inhibition.
The target in data set [2] is T1, DHODH. Conditions: cited from earlier work.
Target sequence in this assay (Q02127 whole entry, species assumed): as the sequence (Q02127 whole entry) above
A further data set deals with IMPDH. The note with it: competition for NAD+ cofactor-binding site; Yamada et al. 1989; read-out: Ki against NAD; cited from earlier work.
For data set [3] the following is noted: daily dosage of 2-3 g MMF, adult transplant recipients; cited from earlier work.
Data set [4] deals with Jurkat T cells transfected with plasmid IMPDH(T333I/S351Y)/pMG. The experiment in a line: Proliferation (3H-Tdr incorporation) of Jurkat T cells transfected with IMPDH(T333I/S351Y)/pMG. Format: cell-based, human.
In data set [5] the target is Tritrichomonas foetus IMPDH (Tritrichomonas foetus, UniProt P50097). Conditions: Farazi et al. 1997; cited from earlier work.
Data set [6] concerns OKT3/rhIL-2-activated PBMCs. The data set can be described thus: Viability (Trypan Blue) of OKT3/rhIL-2-activated PBMCs. Type of data set: cell-based, human. Conditions: MPA 1×10^−7M to 1×10^−4M, 72, 96, 144 hours. On the procedure:
(§1) Five hundred million freshly isolated, healthy donor peripheral blood mononuclear cells (PBMCs) were diluted to a volume of 500 ml with T cell culture media. PBMCs were activated with 15 λ anti-CD3 monoclonal antibody Orthoclone OKT3 (Ortho Biotech Inc.). Ten 50 ml aliquots of PBMC/OKT3 were placed in separate flasks. To each PBMC/OKT3 flask, 50 μL of stock 50 U/μl recombinant human IL-2 (Chiron catalog No. 53905-991-01) was added to stimulate proliferation. OKT3/rhIL-2-activated PBMCs were passaged under the same conditions as described for the Jurkat T cells. The amount of Jurkat T cell and PBMC proliferation was determined by measuring DNA incorporation of ^3H-Tdr 8, 10, 12, and 15 days thereafter.
(§2) The viability of Jurkat T cells and PBMCs was determined using the Trypan Blue method for counting and calculating the number of live cells. […] Viable cells (unstained cells) and dead cells (blue stained cells) were counted in two diagonally opposite large corner squares of the hemacytometer and the total number of viable cells in the suspension and percentage of viable cells in the population were calculated. The total number of viable cells in the suspension was calculated by multiplying the mean number of cells counted per square by the dilution factor multiplied by 10^4. […]

The next data set deals with Escherichia coli IMPDH (Escherichia coli, UniProt P0ADG7). The note with it: Farazi et al. 1997; cited from earlier work.
The test system of data set [7] is Jurkat T cells transfected with plasmid IMPDH(T333I/S351Y)/pMG. The data set can be described thus: Viability (Trypan Blue) of Jurkat T cells transfected with IMPDH(T333I/S351Y)/pMG. Type of data set: cell-based, human. Conditions: hygromycin-resistant transfectants.
Data set [8] relates to OKT3/rhIL-2-activated PBMCs. The data set can be described thus: Proliferation (3H-Tdr incorporation) of OKT3/rhIL-2-activated PBMCs. Type of data set: cell-based, human. Conditions: MPA 1×10^−7M to 1×10^−4M, 72, 96, 144 hours. The method, then:
as §1
To assess proliferation by ^3H-Tdr incorporation, a volume of cell suspension containing 5×10^6 cells was diluted to 10 ml and incubated at 37° C. and 5% CO2. […] Wells were harvested onto filter paper using a PhD Cell Harvester and CPM were counted in a liquid scintillation counter by standard scintillation procedures.
(§3) The amount of cell proliferation and viability were measured by the methods described in Example 1 at 72, 96, and 144 hours thereafter. OKT3/rhlL-2-activated PBMCs from healthy donors were passaged under the above conditions, and the amount of cell proliferation measured at the same time intervals.

The subject of data set [9] is Jurkat T cells. The experiment in a line: Proliferation (3H-Tdr incorporation) of untransfected or mock-transfected Jurkat T cells. Type of data set: cell-based, human. On the procedure: (§4) Jurkat T cells (Human CD4+ T cell line from American Type Culture Collection, ATCC Number: TIB-152) were passaged in T cell culture media containing 0, 100, 125, 150, 175, and 200 μg/ml hygromycin. Unless otherwise stated, T cell culture media was prepared by addition of 13.7 ml HEPES (Irvine Scientific catalog No. 9319), 5 ml L-Glutamine (BioWhittaker Catalog No. 17-605C) and 57 ml heat inactivated fetal calf serum (Hyclone catalog No. SH30070.03) to 500 ml RPMI 1640 medium without Phenol Red pH indicator (Irvine Scientific catalog No. 9160).
To assess proliferation by ^3H-Tdr incorporation, a volume of cell suspension containing 5×10^6 cells was diluted to 10 ml and incubated at 37° C. and 5% CO2. On days 8, 10, 12, and 15, volumes of cell suspension yielding 0.6×10^6 cells were placed in 15 ml conical tubes and centrifuged at 1100 rpm for 8 minutes at room temperature. Supernatant was removed and cells were resuspended in […] T cell media. Aliquots of 0.1 ml each were dispensed into wells of a 96 well round bottom plate. Six wells were used for each clone. ^3H-Tdr (ICN catalog No. 24041) was diluted 1:20 with T cell media. Each well was pulsed by adding 50 μl/well (lpCi ^3H-Tdr/well) dilute ^3H-Tdr and incubating for 4 hours. Wells were harvested onto filter paper using a PhD Cell Harvester and CPM were counted in a liquid scintillation counter by standard scintillation procedures.
as §3
Jurkat T cells (ATCC Number: TIB-152) were grown in T cell culture media in log phase and then subjected to electroporation by the method described in Example 1 in the presence of plasmid DNA vector IMPDH(T333I/S351Y)/pMG as described above. As a control (“mock”), Jurkat T cells were mock-transfected by electroporation with plasmid-free buffer.
As a control, mock-transfected Jurkat T cells were passaged under the same conditions.
As a control, mock-transfected Jurkat T cells were cultured under the same conditions.

The target of data set [10] is T2, IMPDH type II (Homo sapiens, UniProt P12268). Conditions: cited from earlier work.
In data set [11] the test system is Jurkat T cells. The data set can be described thus: Viability (Trypan Blue) of untransfected or mock-transfected Jurkat T cells. Type of data set: cell-based, human. On the procedure: as §4
as §2, with “10^4. The percentage of viable cells in the population was calculated by dividing the total number of viable cells per ml by the total number of cells per ml multiplied by 100.” for “10^4.”

A further data set has as its target Bacillus subtilis IMPDH (Bacillus subtilis, UniProt P21879). The note with it: Farazi et al. 1997; cited from earlier work.
For the next data set, the target named is IMPDH type I (Homo sapiens, UniProt P20839). Conditions: uncompetitive inhibitor; read-out: Ki against type I; cited from earlier work.
For data set [12], the system named is B cell and T cell proliferation. The note with it: cited from earlier work.
Data set [13] has as its target T2, IMPDH type II. Conditions: uncompetitive inhibitor; read-out: Ki against type II; cited from earlier work.
Setting [14] is: human DHODH, read-out: Ki, uncompetitive with respect to dihydroorotate.
Where [15] appears, read: Jurkat, MPA 1×10^−7M to 1×10^−4M, 72, 96, 144 hours.

Sequence of type I IMPDH (P20839 whole entry): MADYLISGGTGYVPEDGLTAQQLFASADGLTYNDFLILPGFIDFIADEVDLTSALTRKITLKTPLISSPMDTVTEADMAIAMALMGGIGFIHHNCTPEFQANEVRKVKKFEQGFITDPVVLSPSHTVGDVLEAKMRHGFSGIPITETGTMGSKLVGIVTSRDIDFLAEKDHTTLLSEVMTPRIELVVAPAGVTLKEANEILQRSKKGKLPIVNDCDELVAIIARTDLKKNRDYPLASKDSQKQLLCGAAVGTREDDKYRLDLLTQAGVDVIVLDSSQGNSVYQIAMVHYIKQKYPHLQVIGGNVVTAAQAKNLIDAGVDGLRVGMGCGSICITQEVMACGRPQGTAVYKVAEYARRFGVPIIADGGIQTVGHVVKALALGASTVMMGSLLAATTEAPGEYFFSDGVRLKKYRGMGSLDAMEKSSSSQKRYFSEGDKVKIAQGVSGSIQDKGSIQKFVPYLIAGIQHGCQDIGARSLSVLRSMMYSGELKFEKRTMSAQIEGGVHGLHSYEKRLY
Sequence of Tritrichomonas foetus IMPDH (P50097 whole entry): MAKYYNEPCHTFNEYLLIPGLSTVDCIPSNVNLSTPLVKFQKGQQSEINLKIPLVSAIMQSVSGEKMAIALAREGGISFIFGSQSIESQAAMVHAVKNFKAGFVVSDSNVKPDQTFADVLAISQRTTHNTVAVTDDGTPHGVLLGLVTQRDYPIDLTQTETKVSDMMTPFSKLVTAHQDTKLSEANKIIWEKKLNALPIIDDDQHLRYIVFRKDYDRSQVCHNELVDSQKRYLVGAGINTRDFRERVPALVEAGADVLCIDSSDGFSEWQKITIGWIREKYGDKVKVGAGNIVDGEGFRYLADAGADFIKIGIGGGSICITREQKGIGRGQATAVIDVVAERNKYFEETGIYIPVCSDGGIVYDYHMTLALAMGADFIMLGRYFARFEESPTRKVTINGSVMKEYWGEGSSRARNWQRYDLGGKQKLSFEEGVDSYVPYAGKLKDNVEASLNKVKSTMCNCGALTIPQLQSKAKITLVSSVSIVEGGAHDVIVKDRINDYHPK
Sequence of Escherichia coli IMPDH (P0ADG7 whole entry): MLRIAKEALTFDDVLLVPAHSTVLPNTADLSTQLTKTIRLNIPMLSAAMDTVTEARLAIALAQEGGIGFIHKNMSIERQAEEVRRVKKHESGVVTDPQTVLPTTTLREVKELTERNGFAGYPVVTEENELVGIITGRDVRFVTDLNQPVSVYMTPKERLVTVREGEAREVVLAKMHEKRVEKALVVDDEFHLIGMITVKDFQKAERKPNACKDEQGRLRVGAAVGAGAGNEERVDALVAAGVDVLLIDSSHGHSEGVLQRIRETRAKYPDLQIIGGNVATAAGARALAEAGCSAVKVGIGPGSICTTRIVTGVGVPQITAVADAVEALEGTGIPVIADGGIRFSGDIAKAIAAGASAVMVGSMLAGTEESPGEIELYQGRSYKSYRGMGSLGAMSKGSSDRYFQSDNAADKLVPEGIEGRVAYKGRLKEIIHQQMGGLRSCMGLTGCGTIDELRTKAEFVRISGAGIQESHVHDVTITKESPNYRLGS
Sequence of IMPDH type I (P20839 whole entry): as the sequence (P20839 whole entry) above
Sequence of Bacillus subtilis IMPDH (P21879 whole entry): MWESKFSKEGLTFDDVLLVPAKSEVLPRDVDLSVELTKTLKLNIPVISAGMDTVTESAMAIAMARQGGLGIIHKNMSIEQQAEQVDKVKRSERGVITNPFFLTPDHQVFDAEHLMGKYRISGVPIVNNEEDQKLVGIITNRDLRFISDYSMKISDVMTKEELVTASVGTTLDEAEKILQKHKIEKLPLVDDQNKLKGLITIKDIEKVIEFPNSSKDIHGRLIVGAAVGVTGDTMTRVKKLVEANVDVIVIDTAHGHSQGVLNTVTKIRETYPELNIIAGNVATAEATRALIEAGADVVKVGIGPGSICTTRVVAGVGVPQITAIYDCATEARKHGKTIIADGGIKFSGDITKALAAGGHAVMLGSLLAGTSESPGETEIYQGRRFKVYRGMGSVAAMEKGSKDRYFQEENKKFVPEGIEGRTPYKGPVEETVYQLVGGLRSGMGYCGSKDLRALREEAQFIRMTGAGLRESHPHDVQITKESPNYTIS

For `O=C(O)c1cc(=O)[nH]c(=O)[nH]1` [Orotate], the Ki on DHODH [1] (competitive with respect to dihydroorotate, read-out: Kis (slope inhibition constant)) was 22 ± 3 µM; on DHODH [1] (uncompetitive with respect to quinone, read-out: Kij (intercept inhibition constant)), 60 ± 10 µM.
On to xanthine monophosphate [XMP], for which the Ki on type I IMPDH is approximately 80 µM; at type II IMPDH, approximately 94 µM.
Regarding `CC(=O)N1CCc2c([nH]c3ccc(Br)cc23)C1c1ccccc1` (stereo not shown) [NSC 665564], on DHODH [2], the “IC50 compared with Brequinar” value is “comparable IC50 to Brequinar” and the “Ki compared with Brequinar” value is “lower Ki”.
On to `O=C1C(O)=C(CC=C(Cl)Cl)C(=O)c2ccccc21` [DCL, dichloroallyl lawsone], for which the Ki on DHODH [1] (human DHODH, read-out: Ki, competitive with respect to ubiquinone) was 0.0098 µM; on DHODH [1] (setting [14]) it was 0.038 µM.
As to `NC(=O)c1csc(C2O[C@@H](COP(=O)(O)OP(=O)(O)OC[C@H]3OC(n4cnc5c(N)ncnc54)[C@H](O)[C@@H]3O)[C@H](O)[C@@H]2O)n1` (stereo partly shown) [TAD, thiazole-4-carboxamide adenine dinucleotide], the Ki at IMPDH is 0.075 µM.
As usually defined, the Km is the concentration of substrate that gives half-maximal velocity. For `O=C1CC(C(=O)O)NC(=O)N1` (stereo not shown) [dihydroorotate], at DHODH [1] (human DHODH), the Km is approximately 9.4 µM.
In the case of `COc1c(C)c2c(c(O)c1C/C=C(\C)CCC(=O)OCCN1CCOCC1)C(=O)OC2` [MMF, Mycophenolate mofetil], the “therapeutically relevant blood trough levels” value in data set [3] is 1 to 5 µg/mL.
Regarding `NC(=O)C1=CN([C@@H]2O[C@H](COP(=O)(O)OP(=O)(O)OC[C@H]3O[C@@H](n4cnc5c(N)ncnc54)[C@H](O)[C@@H]3O)[C@@H](O)[C@H]2O)C=CC1` [NADH], the values for the Ki at type I IMPDH and at type II IMPDH were approximately 102 µM and approximately 90 µM, respectively.
As for `NC(=O)c1ccc[n+]([C@@H]2O[C@H](COP(=O)([O-])OP(=O)(O)OC[C@H]3O[C@@H](n4cnc5c(N)ncnc54)[C@H](O)[C@@H]3O)[C@@H](O)[C@H]2O)c1` [NAD], the Km on type I IMPDH (substrate/cofactor) is approximately 46 µM; at type II IMPDH (substrate/cofactor) it was approximately 32 µM.
In the case of `COc1c(C)c2c(c(O)c1C/C=C(\C)CCC(=O)O)C(=O)OC2` [MPA, Mycophenolic acid], the “maximum 3H-Tdr incorporation maintained” value in [4] (five of the ten MPA-resistant clones, MPA 1×10^−6M or less) is given as “greater than 50%”. Besides, the “proliferation, % of the maximum proliferation in the absence of MPA” value in data set [4] (hygromycin-resistant transfectants, 2×10^−6M to 2×10^−7M MPA) is on record as 20-92%. Moreover, the “transfectant cells demonstrating proliferation” value in [4] (limiting dilution in 3×10^−6 M mycophenolic acid, 21 days after transfection, 10^4 cells per well) is on record as “Approximately 10%”. Also, the Ki in data set [5] is 14 µM; on Escherichia coli IMPDH, 20 µM; at Bacillus subtilis IMPDH, 0.5 µM. The “viability vs. absence of MPA” value in [6] is recorded as “significantly reduced by MPA at all concentrations, except the lowest concentration”; in the data set on Jurkat T cells [11] (setting [15]), “significantly reduced”. In addition, in [7] (higher concentrations of mycophenolic acid), the “viability at day 21 post-transfer compared to day 0” value was “somewhat less viable”. Also, in data set [7] (lower concentrations of mycophenolic acid), the “viability at day 21 post-transfer” value was “more viable at day 21 post-transfer than those cultured in medium containing higher concentrations of mycophenolic acid”. In addition, the “proliferation vs. absence of MPA” value is given as “significantly reduced by MPA at all concentrations, except the lowest concentration” in data set [8] and “significantly reduced” in the data set on Jurkat T cells [9] (setting [15]). Also, the “proliferation in presence of mycophenolic acid” value in the data set on Jurkat T cells [9] (control Jurkat, MPA 1×10^−6M to 2×10^−5M) is listed as “essentially completely inhibited”. In addition, the “proliferation in medium containing mycophenolic acid” value in the data set on Jurkat T cells [9] (mock-transfected Jurkat, MPA 2×10^−7M to 2×10^−5M) is given as “did not proliferate”. In the data set with Jurkat T cells [9] (mock-transfected Jurkat, mycophenolic acid 2×10^−7 M and greater), the “3H-Tdr incorporation, % of media control” value is recorded as “less than 3%”. Further, the “higher binding affinity for human IMPDH type II over human IMPDH type I” value on IMPDH type II [10] was “approximately 5 fold”. Besides, the “viable cells in medium containing mycophenolic acid” value in the data set with Jurkat T cells [11] (mock-transfected Jurkat, by 36 days) is given as “no viable cells were detected”.
As for `COC1=C(OC)C(=O)C(C/C=C(\C)CC/C=C(\C)CC/C=C(\C)CC/C=C(\C)CC/C=C(\C)CC/C=C(\C)CC/C=C(\C)CC/C=C(\C)CC/C=C(\C)CCC=C(C)C)=C(C)C1=O` [ubiquinone], at DHODH [1] (human DHODH), the Km was approximately 110 µM.
Regarding `Cc1nc2c(n1-c1ccc(Br)cc1)C(=O)c1ccccc1C2=O` [BNID, 1-(p-bromophenyl)-2-methyl 1H-napth(2,3-d)-imidazole-4,9-dione], the Ki at DHODH [2] was 0.53 µM.
For the compound `COc1cc(-c2ccc(Nc3ccccc3C(=O)O)c(OC)c2)ccc1Nc1ccccc1C(=O)O` [Redoxal], the Ki at DHODH [1] (non-competitive for dihydroorotate and ubiquinone, read-out: apparent Ki) is 0.33 µM.
As for `CCCCCCCCCCC1=C(C)C(=O)C(OC)=C(OC)C1=O` [decylubiqunone], at DHODH [1] (human DHODH), the Km is approximately 13.7 µM.
Consider `O=C1C(O)=C([C@H]2CC[C@H](c3ccc(Cl)cc3)CC2)C(=O)c2ccccc21` [Atovaquone], for which the Ki at DHODH [1] (setting [14]) is 11.5 µM.
What is called IC50 is the concentration that inhibits the measured activity by half. Consider `COc1cc(NC(=O)Nc2cccc(CNC(=O)O[C@H]3CCOC3)c2)ccc1-c1cnco1` [VX-497], for which the Ki on IMPDH type I is 0.007 µM; on IMPDH type II [13] it was 0.01 µM. The half-maximal inhibitory concentration (IC50) in data set [12] was approximately 0.1 µM.
